This passage reports IC50 results from patent US20260146035A1, “FUSED BICYCLIC COMPOUNDS AND THEIR USE AS MER AND AXL INHIBITORS” (DONG-A ST CO., LTD., priority 2022, published 2026).

One assay concerns the target T1, human MER (528-end) (Homo sapiens, UniProt Q12866).
T1 construct: human MER (528-end); purchased Camnabio, Japan
T1 sequence (Q12866 528-999 limits assumed): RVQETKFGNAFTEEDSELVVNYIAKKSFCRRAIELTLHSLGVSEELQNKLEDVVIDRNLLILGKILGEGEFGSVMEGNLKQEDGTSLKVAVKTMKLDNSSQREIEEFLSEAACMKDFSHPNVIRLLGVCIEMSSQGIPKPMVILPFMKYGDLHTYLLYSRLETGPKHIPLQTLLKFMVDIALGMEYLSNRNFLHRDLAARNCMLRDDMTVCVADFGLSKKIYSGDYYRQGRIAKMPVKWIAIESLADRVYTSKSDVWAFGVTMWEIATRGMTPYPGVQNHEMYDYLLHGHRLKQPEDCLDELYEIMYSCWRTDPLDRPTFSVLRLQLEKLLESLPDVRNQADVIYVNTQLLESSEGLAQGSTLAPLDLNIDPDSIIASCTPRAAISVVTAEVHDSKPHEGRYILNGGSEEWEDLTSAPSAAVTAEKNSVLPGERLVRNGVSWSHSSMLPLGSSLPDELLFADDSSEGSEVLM
Briefly: HTRF kinase activity biochemical assay, MER. The conditions noted are these: 10 μM ATP, 30 minutes pre-incubation; read-out: HTRF MERTK IC50. On the procedure: (§1) For the SAR (structure-activity relationship) and compound screening, HTRF (Homogeneous Time Resolved Fluorescence) kinase activity assay was employed for all MER, AXL and TYRO3 kinases using Cisbio HTRF® KinEASE™-TK kit (Cisbio, USA). The kit included biotin-labeled TK substrate, streptavidin-XL665, Eu3+-cryptate-labeled TK antibody and HTRF® Detection buffer. There are two main steps in the kinase assay: kinase reaction and detection of phosphorylated substrate. The reaction was carried out in white low volume 384-well plate (Corning, USA) with 25 nL compound in dimethyl sulfoxide in each well. […] After 1 hour incubation at room temperature, the fluorescence intensity was measured with Envision[…] plate reader (PerkinElmer, USA). Upon excitation at 340 nm by UV, the energy from Eu3+ donor of the antibody is transferred to the FRET acceptor XL665, and […] emits light at 665 nm.

Another assay has as its target T2, human AXL (473-end) (Homo sapiens, UniProt P30530).
T2 construct: human AXL (473-end); purchased SignalChem, Canada
T2 sequence (P30530 473-894 limits assumed): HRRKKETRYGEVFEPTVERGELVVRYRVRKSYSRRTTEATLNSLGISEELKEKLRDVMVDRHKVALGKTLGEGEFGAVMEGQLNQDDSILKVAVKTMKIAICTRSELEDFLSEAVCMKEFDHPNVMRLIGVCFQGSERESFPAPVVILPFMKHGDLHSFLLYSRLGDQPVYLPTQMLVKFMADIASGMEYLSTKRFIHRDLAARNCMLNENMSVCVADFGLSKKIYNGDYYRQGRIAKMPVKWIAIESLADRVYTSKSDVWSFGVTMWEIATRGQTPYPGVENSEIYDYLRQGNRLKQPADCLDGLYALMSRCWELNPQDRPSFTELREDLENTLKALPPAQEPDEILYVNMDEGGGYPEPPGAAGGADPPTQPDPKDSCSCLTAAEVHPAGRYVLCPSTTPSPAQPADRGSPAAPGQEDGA
Briefly: HTRF kinase activity biochemical assay, AXL. Particulars: 10 μM ATP, 30 minutes pre-incubation. On the procedure:
as §1

Another assay deals with T3, human TYRO3 (455-end) (Homo sapiens, UniProt Q06418).
T3 construct: TYRO3 (455-end); purchased SignalChem, Canada
T3 sequence (Q06418 455-890 limits assumed): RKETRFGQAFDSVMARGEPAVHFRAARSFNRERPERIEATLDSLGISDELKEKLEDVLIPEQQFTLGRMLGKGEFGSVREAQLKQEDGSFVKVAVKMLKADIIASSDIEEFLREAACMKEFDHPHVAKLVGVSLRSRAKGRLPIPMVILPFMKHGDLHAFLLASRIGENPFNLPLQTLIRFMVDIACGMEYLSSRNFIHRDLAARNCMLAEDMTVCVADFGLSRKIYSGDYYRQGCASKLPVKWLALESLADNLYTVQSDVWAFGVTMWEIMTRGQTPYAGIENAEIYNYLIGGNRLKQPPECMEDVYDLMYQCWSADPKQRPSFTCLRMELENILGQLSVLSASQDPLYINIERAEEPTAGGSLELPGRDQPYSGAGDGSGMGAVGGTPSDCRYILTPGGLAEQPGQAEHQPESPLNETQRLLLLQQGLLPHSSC
Briefly: HTRF kinase activity biochemical assay, TYRO3. The protocol: as §1

The mark [1] stands for this setting: 10 μM ATP, 30 minutes pre-incubation, read-out: HTRF TYRO IC50.

Read-outs that look alike come from different tables or passages of the source.

With `COc1ccc(-c2cnc(N)c(C(=O)N[C@H]3CCC[C@@H]3OCc3ccc(-c4ccc5c(c4)CC[C@@H]5N4CCN(C)CC4)cc3)c2)cn1` [Example 152, 6-amino-6′-methoxy-N-[(1S,2S)-2-({4-[(1S)-1-(4-methylpiperazin-1-yl)-2,3-dihydro-1H-inden-5-yl]phenyl}methoxy)cyclopentyl][3,3′-bipyridine]-5-carboxamide], the IC50 was below 10 nM on human MER (528-end), below 10 nM at human AXL (473-end) and 100 to 1000 nM on human TYRO3 (455-end) (setting [1]).
In the case of `COc1c(-c2cnn(C)c2)cnc(N)c1C(=O)N[C@H]1CCC[C@@H]1OCc1ccc(-c2ccc3c(c2)CC[C@@H]3N2CCN(C)CC2)cc1` [Example 157, 2-amino-4-methoxy-N-[(1S,2S)-2-({4-[(1S)-1-(4-methylpiperazin-1-yl)-2,3-dihydro-1H-inden-5-yl]phenyl}methoxy)cyclopentyl]-5-(1-methyl-1H-pyrazol-4-yl)pyridine-3-carboxamide], the IC50 at human MER (528-end) was below 10 nM; against human AXL (473-end), below 10 nM; on human TYRO3 (455-end) (setting [1]), 100 to 1000 nM.
As for `CN1CCN(C2CCC(C)(C)c3cc(-c4ccc(CO[C@H]5CCC[C@@H]5NC(=O)c5cc(-c6cnn(C)c6)cnc5N)cc4)ccc32)CC1` (stereo partly drawn) [Example 147, 2-amino-N-[(1S,2S)-2-({4-[8,8-dimethyl-5-(4-methylpiperazin-1-yl)-5,6,7,8-tetrahydronaphthalen-2-yl]phenyl}methoxy)cyclopentyl]-5-(1-methyl-1H-pyrazol-4-yl)pyridine-3-carboxamide], the results for the IC50 at human MER (528-end), at human AXL (473-end) and at human TYRO3 (455-end) (setting [1]) were below 10 nM, below 10 nM and 10 to 100 nM, respectively.
For the compound `Cn1cc(-c2cnc(N)c(C(=O)N[C@H]3CCC[C@@H]3OCc3ccc(-c4ccc5c(c4)CC[C@@H]5N4CCN(C(CO)CO)CC4)cc3)c2)cn1` [Example 128, 2-amino-N-{(1S,2S)-2-[(4-{(1S)-1-[4-(1,3-dihydroxypropan-2-yl)piperazin-1-yl]-2,3-dihydro-1H-inden-5-yl}phenyl)methoxy]cyclopentyl}-5-(1-methyl-1H-pyrazol-4-yl)pyridine-3-carboxamide], the figures for the IC50 at human MER (528-end), against human AXL (473-end) and on human TYRO3 (455-end) (setting [1]) were below 10 nM, below 10 nM and 100 to 1000 nM, respectively.
`Cn1cc(-c2cnc(N)c(C(=O)N[C@H]3CCC[C@@H]3OCc3ccc(-c4ccc5c(c4)C[C@H](F)[C@@H]5N4CCN(CCO)CC4)cc3)c2)cn1` (relative stereo) [Example 85, 2-amino-N-{(1S,2S)-2-[(4-{(1R*,2S*)-2-fluoro-1-[4-(2-hydroxyethyl)piperazin-1-yl]-2,3-dihydro-1H-inden-5-yl}phenyl)methoxy]cyclopentyl}-5-(1-methyl-1H-pyrazol-4-yl)pyridine-3-carboxamide]: the values for the IC50 on human MER (528-end), against human AXL (473-end) and on human TYRO3 (455-end) (setting [1]) were below 10 nM, below 10 nM and 100 to 1000 nM, respectively.
Turning to `Cn1cc(-c2cnc(N)c(C(=O)N[C@H]3CCC[C@@H]3OCc3ccc(-c4ccc5c(c4)C(C)(C)CN5C4CCN(CCO)CC4)cc3)c2)cn1` [Example 13, 2-amino-N-{(1S,2S)-2-[(4-{1-[1-(2-hydroxyethyl)piperidin-4-yl]-3,3-dimethyl-2,3-dihydro-1H-indol-5-yl}phenyl)methoxy]cyclopentyl}-5-(1-methyl-1H-pyrazol-4-yl)pyridine-3-carboxamide], the figures for the IC50 on human MER (528-end), on human AXL (473-end) and on human TYRO3 (455-end) (setting [1]) were below 10 nM, below 10 nM and 10 to 100 nM, respectively.
As to `Cn1cc(-c2cnc(N)c(C(=O)N[C@H]3COC[C@@H]3OCc3ccc(-c4ccc5c(c4)C(C)(C)CN5C4CCN(CCO)CC4)cc3)c2)cn1` [Example 32, 2-amino-N-{(3S,4R)-4-[(4-{1-[1-(2-hydroxyethyl)piperidin-4-yl]-3,3-dimethyl-2,3-dihydro-1H-indol-5-yl}phenyl)methoxy]oxolan-3-yl}-5-(1-methyl-1H-pyrazol-4-yl)pyridine-3-carboxamide], the IC50 was below 10 nM on human MER (528-end), below 10 nM against human AXL (473-end) and 10 to 100 nM on human TYRO3 (455-end) (setting [1]).
As for `Cc1c(-c2cnc(N)c(C(=O)N[C@H]3COC[C@@H]3OCc3ccc(-c4ccc5c(c4)C(C)(C)CN5C4CCN(CCO)CC4)cc3)c2)cnn1C` [Example 47, 2-amino-5-(1,5-dimethyl-1H-pyrazol-4-yl)-N-{(3S,4R)-4-[(4-{1-[1-(2-hydroxyethyl)piperidin-4-yl]-3,3-dimethyl-2,3-dihydro-1H-indol-5-yl}phenyl)methoxy]oxolan-3-yl}pyridine-3-carboxamide], the IC50 at human MER (528-end) is below 10 nM; at human AXL (473-end), below 10 nM; at human TYRO3 (455-end) (setting [1]) it was 10 to 100 nM.
On to `Nc1ncc(-c2ccns2)cc1C(=O)N[C@H]1CCC[C@@H]1OCc1ccc(-c2ccc3c(c2)CC[C@@H]3N2CCN(CCO)CC2)cc1` [Example 174, 2-amino-N-{(1S,2S)-2-[(4-{(1S)-1-[4-(2-hydroxyethyl)piperazin-1-yl]-2,3-dihydro-1H-inden-5-yl}phenyl)methoxy]cyclopentyl}-5-(1,2-thiazol-5-yl)pyridine-3-carboxamide], for which the IC50 is below 10 nM at human MER (528-end), below 10 nM against human AXL (473-end) and 10 to 100 nM at human TYRO3 (455-end) (setting [1]).
On to `Cn1cc(-c2cnc(N)c(C(=O)N[C@H]3CCC[C@@H]3OCc3ccc(-c4ccc5c(c4)CCC[C@H]5N4CCN(C[C@H](O)CO)CC4)cc3)c2)cn1` [Example 170, 2-amino-N-[(1S,2S)-2-({4-[(5R)-5-{4-[(2S)-2,3-dihydroxypropyl]piperazin-1-yl}-5,6,7,8-tetrahydronaphthalen-2-yl]phenyl}methoxy)cyclopentyl]-5-(1-methyl-1H-pyrazol-4-yl)pyridine-3-carboxamide], for which the IC50 is 10 to 100 nM at human MER (528-end), 10 to 100 nM at human AXL (473-end) and above 1000 nM at human TYRO3 (455-end) (setting [1]).
For the compound `CN1C[C@H](NC(=O)c2cc(-c3ccc(F)nc3)cnc2N)[C@@H](OCc2ccc(-c3ccc4c(c3)C(C)(C)CN4C3CCN(CCO)CC3)cc2)C1` [Example 37, 6-amino-6′-fluoro-N-{(3S,4S)-4-[(4-{1-[1-(2-hydroxyethyl)piperidin-4-yl]-3,3-dimethyl-2,3-dihydro-1H-indol-5-yl}phenyl)methoxy]-1-methylpyrrolidin-3-yl}[3,3′-bipyridine]-5-carboxamide], the IC50 is below 10 nM on human MER (528-end), 10 to 100 nM against human AXL (473-end) and 100 to 1000 nM on human TYRO3 (455-end) (setting [1]).
As to `Cn1cc(-c2cnc(N)c(C(=O)N[C@H]3CCC[C@@H]3OCc3ccc(-c4ccc5c(n4)C(C)(C)C(=O)N5C4CCN(CCO)CC4)cc3)c2)cn1` [Example 73, 2-amino-N-{(1S,2S)-2-[(4-{1-[1-(2-hydroxyethyl)piperidin-4-yl]-3,3-dimethyl-2-oxo-2,3-dihydro-1H-pyrrolo[3,2-b]pyridin-5-yl}phenyl)methoxy]cyclopentyl}-5-(1-methyl-1H-pyrazol-4-yl)pyridine-3-carboxamide], the values for the IC50 on human MER (528-end), at human AXL (473-end) and on human TYRO3 (455-end) were 100 to 1000 nM, above 1000 nM and 100 to 1000 nM, respectively.
Turning to `CC1(C)CC(N2CCN(CCO)CC2)c2ccc(-c3ccc(CO[C@H]4CCC[C@@H]4NC(=O)c4cc(-c5ccc(F)nc5)cnc4N)cc3)cc21` (stereo partly drawn) [Example 84, 6-amino-6′-fluoro-N-{(1S,2S)-2-[(4-{1-[4-(2-hydroxyethyl)piperazin-1-yl]-3,3-dimethyl-2,3-dihydro-1H-inden-5-yl}phenyl)methoxy]cyclopentyl}[3,3′-bipyridine]-5-carboxamide], the IC50 was below 10 nM on human MER (528-end), below 10 nM against human AXL (473-end) and 10 to 100 nM at human TYRO3 (455-end) (setting [1]).
